Results published in patent US10596095B2, “Method for moisturizing skin using P-113 peptide” (PACGEN LIFE SCIENCE CORPORATION, priority 2015, dated 2020).

What was measured:
[1] = test system: cells; assay: Cytotoxicity test: MTT assay of cell survival rate; type: cell-based; conditions: 0, 20, 100 and 200 μg/ml; treated 2 hours; FIG. 2
Experimental: The cytotoxicity test was performed with Methylthiazol tetrazolium bromide (MTT) assay to test the cell survival rate. The principle was that MTT is a water-soluble yellow dye, after reacting with cells it was reduced by the NADPH in the cells to become an insoluble dark blue crystal, then the blue crystal was dissolved with dimethyl sulfoxide (DMSO), the absorbance value was analyzed, the stronger the cell activity, the darker the blue, and when the cell was dead, it became yellow.
In the present invention, from low to high concentration (0, 20, 100 and 200 μg/ml) of P-113 peptide and the MI preservative were used to treat the cells for 2 hours, then the MTT solution was added for reaction, a spectrophotometer at the wavelength of 595 nm was used to analyze the cell survival rate, and the harmful toxic effect of the cosmetic raw material on the cells was determined.

[2] = Moisture absorption rate in Conway's dish at defined relative humidity; type: physicochemical; conditions: relative humidity 32%; 30° C., 24 hours; relative to hyaluronic acid at RH 32% set as 100%; FIG. 3
Experimental: The moisture absorption of the P-113 peptide was determined by dissolving magnesium chloride (MgCl2) and potassium chloride (KCl), two types of salts, in water, preparing supersaturated solutions based on the respective solubility of these two types of salts, placing the solutions in sealed bottles to create a relative humidity of 32% and 84%, respectively, then taking P-113 peptide and hyaluronic acid for comparison test. The hyaluronic molecule of hyaluronic acid could carry up to 500 folds of water. The hyaluronic acid is currently recognized as the best moisturizing ingredient, and widely used in cosmetics and skincare products.
0.1 g of P-113 peptide and hyaluronic acid powder were weighed and placed in the internal chamber of a Conway's dish, saturated solutions were added in the external chamber, oil was applied on the rim of the Conway's dish lid to seal it completely, placed in an oven at 30° C. for 24 hours, then samples were removed and weighed.
Moisture absorption rate under different humidity was calculated by the following formula: Moisture absorption rate (%)=[(Wt−W0)/W0]×100%
(§1) wherein W0: the weight (g) of the initial sample, and Wt: the weight (g) of the sample removed after 24 hours.

[3] = Moisture retention rate in Conway's dish at defined relative humidity; type: physicochemical; conditions: relative humidity 32%; 30° C., 24 hours; reference set as 100%; FIG. 4
Experimental: In addition, the moisture retention and water absorption of P-113 peptide were determined by dissolving magnesium chloride (MgCl2) and potassium chloride (KCl), two types of salts, in water, preparing supersaturated solutions based on the solubility of these two types of salt respectively, separately placing in sealed bottles to create a relative humidity of 32% and 84% respectively, then using P-113 peptide and hyaluronic acid for comparison test.
0.1 g of P-113 peptide and hyaluronic acid powder were weighed and placed in the internal chamber of a Conway's dish, then 0.1 ml of deionized water was added, saturated solutions were then added in the external chamber, sealed with the Conway's dish lid and placed in the oven at 30° C. for 24 hours, then samples were removed and weighed.
Moisture retention at different humidity levels was calculated according to the following formula: Moisture retention rate (%)=[1−((Wt−W0)/W0)]×100%
as §1

moisture absorption rate [2] [%]	moisture retention rate [3] [%]	Compound	cell survival rate (MTT) [1]
		Cn1sccc1=O [MI, Methylisothiazolinone]	decreased the cell survival rate
100	100	hyaluronic acid	
